# Data as given in patent US7825102B2, “Treatment of dry eye conditions” (Can-Fite Biopharma Ltd., priority 2004, dated 2010).
# Entries after “also recorded” stand apart in the source; their conditions may differ.
# Legend:
# Type in all cases: in vivo, human
# [1] = system: patient with active rheumatoid arthritis; test: Phase 2 clinical trial: condition of the RA in the same patient; details: one patient; blinded dose 0.1, 1.0 or 4.0 mg q 12 h oral, 12 weeks
# Source text: The patient took part in a phase 2, multicenter, randomized, double-blind, parallel-group, dose-ranging study of the safety and preliminary efficacy of daily IB-MECA administered orally for 12 weeks to patients with active rheumatoid arthritis. The patient is a person with a 7 year history of RA, previously treated with 3 disease-modifying anti-rheumatic drugs (DMARDs), and a history of 2-3 years of dry eyes treated with tear substitutes a few times a day. After a 4 week DMARD washout period, the patient was treated with a blinded dose of IB-MECA—either 0.1, 1.0 or 4.0 mg q 12 h for 12 weeks. They are currently continuing IB-MECA treatment under a long term extension protocol of the original 12 weeks study.
# [2] = system: patient with rheumatoid arthritis (RA) and secondary Sjogren symptoms, mainly manifested by dry eye; test: Phase 2 clinical trial: dry eye symptoms of one patient with RA and secondary Sjogren symptoms
# Source text: A patient with rheumatoid arthritis (RA) and secondary Sjogren symptoms, mainly manifested by dry eye, treated for years with eye drops (tear substitutes) participated in a phase 2 clinical trial with IB-MECA for the treatment of active RA. […] The patient took part in a phase 2, multicenter, randomized, double-blind, parallel-group, dose-ranging study of the safety and preliminary efficacy of daily IB-MECA administered orally for 12 weeks to patients with active rheumatoid arthritis. The patient is a person with a 7 year history of RA, previously treated with 3 disease-modifying anti-rheumatic drugs (DMARDs), and a history of 2-3 years of dry eyes treated with tear substitutes a few times a day. After a 4 week DMARD washout period, the patient was treated with a blinded dose of IB-MECA—either 0.1, 1.0 or 4.0 mg q 12 h for 12 weeks. They are currently continuing IB-MECA treatment under a long term extension protocol of the original 12 weeks study.
# [3] = system: RA patients who also suffered from Sicca (dry eyes); test: Schirmer test in RA patients with Sicca given oral IB-MECA capsules twice daily
# Method: The IB-MECA was formulated in oval softgel capsules. The capsules contained solutions of IB-MECA in Cremophor RH 40 and Miglyol 812. The capsules contained a dose of 0.1, 1 or 4 mg of IB-MECA, the exact composition of each capsules' type is shown in the following Tabels 1-3: The capsules with IB-MECA were given to patients orally twice daily. All patients had rheumatoid arthritis (RA) and were give IB-MECA within the framework of a clinical study aimed at testing the effect of IB-MECA in modifying RA disease symptoms in these patients. The patients received randomly capsules of one of the above there doses. The patients received the IB-MECA for a period of 12 weeks. 4 out of the treated patients also suffered from Sicca and the effect of IB-MECA on their dry eye symptoms was examined as well. Specifically, four patients at the age 58±4 years who suffered from RA for 8±2 years were followed. At base line, the patients had elevated levels of rheumatoid factor, i.e., 313±120 IU/ml (0<normal<40) and had suffered from dry eyes for 5±1.6 years. Upon treatment with IB-MECA for 6.25±1.1 months, an improvement in Schirmer's test from 8.5±1.4 mm to 15.6±2.9 mm was observed.
# [4] = Patient 3, dose 4.0 twice daily oral, 7 months treatment, base line 5
compound,measurement,setting,value
"CNC(=O)[C@H]1O[C@@H](n2cnc3c(NCc4cccc(I)c4)ncnc32)[C@H](O)[C@@H]1O [IB-MECA, N^6-(3-iodobenzyl)-adenosine-5′-N-methyluronamide]","condition of the RA (swollen and tender joints, ESR and CRP, global assessments, pain and disability)",[1],marked improvement
same,symptoms of dry eye (secondary Sjogren's syndrome),"[2]; blinded dose 0.1, 1.0 or 4.0 mg q 12 h oral, 12 weeks plus extension",improved significantly; also recorded: substantial improvement
same,time of IB-MECA administration after which tear substitutes were no longer needed,"[2]; patient-reported, blinded dose 0.1, 1.0 or 4.0 mg q 12 h oral",3-4 weeks
same,current dry eye symptoms under continued treatment,"[2]; patient-reported, long term extension protocol",no symptoms of dry eye
same,Schirmer test Left eye End of study,"[3]; Mean of 4 patients, doses 0.1-4.0 twice daily, mean 6.25 months treatment, base line mean 6.75",16.5 mm
same,Schirmer test Right eye End of study,"[3]; Mean of 4 patients, doses 0.1-4.0 twice daily, mean 6.25 months treatment, base line mean 10.25",14.75 mm
same,Schirmer test Left eye End of study,"[3]; Patient 1, dose 0.1 twice daily oral, 4 months treatment, base line 6",9 mm
same,Schirmer test Right eye End of study,"[3]; Patient 1, dose 0.1 twice daily oral, 4 months treatment, base line 14",9 mm
same,Schirmer test Left eye End of study,"[3]; Patient 2, dose 1.0 twice daily oral, 5 months treatment, base line 10",32 mm
same,Schirmer test Right eye End of study,"[3]; Patient 2, dose 1.0 twice daily oral, 5 months treatment, base line 15",23 mm
same,Schirmer test Left eye End of study,[3]; [4],16 mm
same,Schirmer test Right eye End of study,[3]; [4],17 mm
same,Schirmer test Left eye End of study,"[3]; Patient 4, dose 1.0 twice daily oral, 9 months treatment, base line 6",9 mm
same,Schirmer test Right eye End of study,"[3]; Patient 4, dose 1.0 twice daily oral, 9 months treatment, base line 7",10 mm
same,Schirmer's test after treatment,"[3]; four RA patients, treatment for 6.25±1.1 months, improvement from 8.5±1.4 mm at base line",15.6±2.9 mm
